Measurements as given in US10421774B2 (priority 2016, dated 2019).

Tests used:
[1] = system: V362I/prR41G site directed mutant virus; assay: Anti-viral sensitivity of site directed mutants, V362I/prR41G; assay type: cell-based, HIV-1; details: genotype V362I/prR41G, sensitivity relative to wt virus
Description: (§1) Viruses. NLRepRluc virus contains the Renilla luciferase marker in place of the viral nef gene. The proviral plasmid pNLRepRluc was constructed at Bristol-Myers Squibb, starting from a proviral NL4-3 clone (B subtype) that was obtained from the NIH AIDS Research and Reference Reagent Program. The parental recombinant wild type (WT) virus (NLRepRlucP373S) was derived from NLRepRluc and contains the additional substitution of P373 for serine in Gag (within the SP1 spacer), the most common 373 variation in subtype B. Other recombinant viruses (A364V, V370A/ΔT371 and the “T3325 triple” (T332S/V362I+HIV-1 protease R41G)) were generated by site-directed mutagenesis of plasmid pNLRepRlucP373S to introduce those amino acid substitutions in Gag and protease. […] Titers of virus stocks were determined using a luciferase assay (Dual-Luciferase® Reporter Assay System, Promega, Milwaukee, Wis., USA) endpoint.
(§2) Multiple cycle drug susceptibility assay. […] After 4-5 day incubation at 37° C./CO2, virus yields were determined by Renilla luciferase activity (Dual-Luciferase® Reporter Assay System, Promega). The endpoint luminescence was detected on a Wallac Trilux (PerkinElmer).
(§3) Starting from wt virus, the HIV protease R41G substitution was detected in one of three in vitro selections for resistance to the MI compound above along with Gag V362I and Gag T332S. […]

[2] = system: HIV protease R41G site directed mutant virus; assay: Anti-viral sensitivity of site directed mutants, HIV protease R41G; assay type: cell-based, HIV-1; details: genotype HIV protease R41G, sensitivity relative to wt virus
Description: as §1, §2, §3

[3] = system: V362I site directed mutant virus; assay: Anti-viral sensitivity of site directed mutants, V362I; assay type: cell-based, HIV-1; details: genotype V362I, sensitivity relative to wt virus
Description: as §1, §2, §3

[4] = system: T332S site directed mutant virus; assay: Anti-viral sensitivity of site directed mutants, T332S; assay type: cell-based, HIV-1; details: genotype T332S, sensitivity relative to wt virus
Description: as §1, §2, §3

[5] = system: T332S/prR41G site directed mutant virus; assay: Anti-viral sensitivity of site directed mutants, T332S/prR41G; assay type: cell-based, HIV-1; details: genotype T332S/prR41G, sensitivity relative to wt virus
Description: as §1, §2, §3

[6] = system: T332S/V362I site directed mutant virus; assay: Anti-viral sensitivity of site directed mutants, T332S/V362I; assay type: cell-based, HIV-1; details: genotype T332S/V362I, sensitivity relative to wt virus
Description: as §1, §2, §3

[7] = system: T332S/V362I/Pr R41G virus; assay: microbe, parasite or virus in culture; assay type: cell-based, HIV-1; details: for Fold wt: genotype T332S/V362I/Pr41G, sensitivity relative to wt virus; for EC90: Human immunodeficiency virus 1, read-out: T332S/V362I/prR41G EC90
Summary of the method: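 Multiple-cycle susceptibility: MT-2 cells, 10,000 per well, exposed to 3-fold compound dilutions at 1% DMSO after infection with luciferase-normalized inoculum. Virus: NL4-3-derived Renilla reporter (Gag P373S) with Gag T332S/V362I and protease R41G. Readout Renilla luciferase after 4–5 days, 37 °C.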

[8] = system: viruses that contain T332S and HIV protease R41G combinations, with and without V362I; assay: Anti-viral sensitivity of site directed mutants, single and double combinations summarised in text; assay type: cell-based, HIV-1; details: viruses with only a single change
Description: Starting from wt virus, the HIV protease R41G substitution was detected in one of three in vitro selections for resistance to the MI compound above along with Gag V362I and Gag T332S. R41G is not a primary PI resistance substitution^i and is not present in the LANL database (2010). There is a single report of R41G associated with in vitro selection for resistance to an investigational PI^ii. […] A related change, R41K, is a common subtype B polymorph (27% of LANL database), and R41K may be involved in the emergence of protease resistance to an investigational protease inhibitor.^iii R41 is located in a loop proximal to the HIV-1 protease substrate binding site, and this change might act allosterically to facilitate closing the protease active site pocket over the substrate, thereby allowing catalysis. It might be that R41G alters the dynamics of the loop motion and the final positioning of the loop, which could cause the active site to better recognize the primary MI compound (above)-selected changes (V362I/T332S). An analysis of the V362I/T332S/Pr R41G substitutions, and their effects on MI compound susceptibility and viral growth, are described in the Table 1 below:
Viruses were constructed that contain T332S and HIV protease R41G combinations, with and without V362I.). […]

HIV-1 strain NL4-4 virus = assay: Selection for resistance to the MI compound, EC50 for the starting virus; assay type: cell-based; details: Human immunodeficiency virus 1, read-out: EC50 for this virus
Description: T332sN362I/Pr R41G (N14.3, B Clade) virus′ was obtained as follows: Selection for resistance of HIV-1 strain […] virus with the HIV maturation inhibitor (MI) compound
At passage 8 virus was harvested and sequenced.

gag V370A/ΔT371 virus = assay: microbe, parasite or virus in culture; assay type: cell-based, HIV-1; details: Human immunodeficiency virus 1, read-out: V370A/ΔT371 EC90
Summary of the method: (§4)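 Virus yield quantified by Renilla luciferase after 4–5 day culture at 37°C of MT-2 cells (10,000/well) with 3-fold serially diluted compound at 1% final DMSO. Reporter viruses were NL4-3 P373S derivatives bearing Gag A364V or V370A/ΔT371, inputs matched on luciferase endpoint.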

[9] = system: A364V site directed mutant virus; assay: microbe, parasite or virus in culture; assay type: cell-based, HIV-1; details: Human immunodeficiency virus 1, read-out: A364V EC90
Summary of the method: as §4

[10] = system: NLRepRlucP373S recombinant wild type (WT) virus; assay: microbe, parasite or virus in culture; assay type: cell-based, HIV-1; details: Human immunodeficiency virus 1, read-out: WT EC50
Summary of the method: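 Multiple-cycle assay: luciferase-normalized NL4-3-derived NLRepRlucP373S (Renilla luciferase in place of nef) infects MT-2 cells, 10,000 cells/well, with 3-fold compound dilutions at 1% DMSO, 4-5 days, 37 °C. EC50 and EC90 fitted by median effect equation against Renilla luminescence, with residual signal under 3 μM NFV as background.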

C=C(C)[C@@H]1CC[C@]2(C(=O)O)CC[C@]3(C)[C@H](CC[C@@H]4[C@@]5(C)CC[C@H](OC(=O)CC(C)(C)C(=O)O)C(C)(C)[C@@H]5CC[C@]43C)[C@@H]12 [BVM, 3β-(3-carboxy-3-methyl-butanoyloxy) lup-20(29)-en-28-oic acid]
Fold wt [1]: 3.9
Fold wt [2]: 1.9
Fold wt [3]: 0.6
Fold wt [4]: 23
Fold wt [5]: 4.2
Fold wt [6]: 3.1
Fold wt [7]: 10

C=C(C)[C@@H]1CC[C@]2(NCCN3CCS(=O)(=O)CC3)CC[C@]3(C)[C@H](CC[C@@H]4[C@@]5(C)CC=C(c6ccc(C(=O)O)cc6)C(C)(C)[C@@H]5CC[C@]43C)[C@@H]12 [MI compound]
Fold wt [1]: 9.3
Fold wt [2]: 1.5
fold less sensitive [8]: 2 fold
EC50 (HIV-1 strain NL4-4 virus): 2 nM
Fold wt [3]: 2.2
Fold wt [4]: 1.9
Fold wt [5]: 6.1
Fold wt [6]: 5.7
Fold wt [7]: 217

C=C(C)[C@@H]1CC[C@]2(NCCN3CCS(=O)(=O)CC3)CC[C@]3(C)[C@H](CC[C@@H]4[C@@]5(C)CC=C(C6=CCC(COCc7ccccc7C#N)(C(=O)O)CC6)C(C)(C)[C@@H]5CC[C@]43C)[C@@H]12 (stereo partly drawn) [reference compound]
EC90 (gag V370A/ΔT371 virus): 2420 nM
EC90 [9]: 228 nM
EC50 [10]: 3 nM
EC90 [7]: 2420 nM

C=C(C)[C@@H]1CC[C@]2(NCCN3CCS(=O)(=O)CC3)CC[C@]3(C)[C@H](CC[C@@H]4[C@@]5(C)CC=C(C6=CCC(COCc7ncccc7C#N)(C(=O)O)CC6)C(C)(C)[C@@H]5CC[C@]43C)[C@@H]12 (stereo partly drawn) [reference compound]
EC90 (gag V370A/ΔT371 virus): 1460 nM
EC90 [9]: 340 nM
EC50 [10]: 2 nM
EC90 [7]: 1460 nM
